Source: patent US10945685B2, “System and method for normalizing standardized uptake values in brain positron emission tomography (PET) images” (New York University, priority 2018, dated 2021)

How the values were obtained:
Type in all cases: in vivo, human
tau [1] = assay: Tau PET tracer binding, SUVP peak-alignment method and positive binding percentage (PBP), AD patients and NL subjects; details: for PBP of SUVP, Basal ganglia / PBP of SUVP, Cerebellar GM / PBP of SUVP, Cerebral GM / PBP of SUVP, Cerebral WM / PBP of SUVP, Frontal cortex / PBP of SUVP, Occipital cortex / PBP of SUVP, Partial cortex / PBP of SUVP, Temporal cortex: SUVP cutoff 1.5; for PBP of SUVP, Basal ganglia / PBP of SUVP, Cerebellar GM / PBP of SUVP, Cerebral GM / PBP of SUVP, Cerebral WM / PBP of SUVP, Frontal cortex / PBP of SUVP, Occipital cortex / PBP of SUVP, Partial cortex / PBP of SUVP, Temporal cortex / mean SUVP in cerebellum GM: mean (SD)
From the text: The set of standardized uptake values (with repetition) for all voxels within brain region r and subject s may be represented as SUV(r,s). Each of the values of SUV(r,s) may be normalized using a SUVP method represented as follows: SUVP(r,s)=(SUV(r,s)−M)/S, where M corresponds to a peak of the number of counts of emissions events recorded across all of the voxels of the PET image data, and S corresponds to a spread of all of the different counts of emissions events recorded across all of the voxels of the PET image data. Each subject's SUV image may be normalized and transferred into a standardized SUVP, using the standardized uptake value peak-alignment (SUVP) method described herein.
In one particular example, M is the sample mode of rounded SUV(r,s), and S is the standard deviation of SUV(r,s). Furthermore, the peak (M) values, in particular the sample mode of rounded SUV(r,s) may be used as a reference region to normalize raw SUV data using methods similar to SUVR.
In addition, as shown in step 112, a SUVP method may also be used to analyze regional percentages of positive binding in the PET data. Positive binding may be defined based on a predetermined cutoff value. The predetermined cutoff value may be any suitable value that is well above background signal. In some embodiments, the predetermined cutoff value may be manually set by a user. One important advantage of SUVP is that it standardized range of whole brain SUV into a generally fixed range regardless of tracer or disease condition, allowing universal cutoff for different tracers (e.g., 1.5 for all tracers), while SUVR cutoffs are tracer-dependent and varies across different studies (e.g., 1.5 for THK5315 and 1.2 for AV1451). Additionally, as discussed further below in Example I, when SUVP was calculated by using a standard deviation (SD), 1.5 times a SUVP cutoff value is equivalent to 1.5 times SD, which signifies a statistic meaningful way to distinguish and identify positive voxels. The percentage of positive binding (PBP) may be obtained by:
Subjects come from two sources. 18 subjects (9 AD patients, and 9 healthy elderly study participants) underwent ^18F-THK5351 PET scans from the memory clinic of Tohoku University Hospital. ^18F-AV-1451 scans were obtained from the ADNI (Alzheimer's Disease Neuroimaging Initiative) database (adni.loni.usc.edu). 32 Subjects (20 NL and 12 AD) with ^18F-AV-1451 were selected from ADNI, that were matched to the age and MMSE in participants of the THK5351 group.
PET imaging was performed using an Eminence STARGATE PET scanner (Shimadzu, Kyoto, Japan). After intravenous injection of ^18F-THK5351 (185 MBq), dynamic PET images were obtained for 60 min. acquisition matrix is 128×128×79 and voxels size is 2×2×2.6 mm. ^18F-THK5351 was synthesized. MRI was performed on all participants. T1 weighted MR images were obtained using a SIGNA 1.5-Tesla machine (General Electric, Milwaukee, Wis.). In T1-weighted MRI, a 3D volumetric acquisition of a T1-weighted gradient echo sequence produced a gapless series of thin axial sections by using a vascular TOF SPGR sequence (echo time/repetition time, 2.4/50 ms; flip angle, 45°; acquisition matrix, 256×256; 1 excitation; field of view, 22 cm; slice thickness, 2.0 mm).
AV-1451 data were downloaded from ADNI with series description “AV1451 Coreg, Avg, Std Img and Vox Siz, Uniform Resolution”. An intravenous injection of 10 mCi ^18F-AV-1451 (370 MBq) is followed by a saline flush. At approximately 75 minutes following injection, a continuous 30-minute brain scan (6 frames of 5-minute duration) was performed after a CT or transmission scan for attenuation correction. PET imaging was performed using GEMINI TF TOF 16 (Philips Medical Systems), with 6 frames; acquisition matrix 128×128×90; pixel spacing 2×2 mm; slice thickness 2 mm. […]

tau [2] = assay: AD-NL classification from tau PET: ROC AUC and AD-NL ratio of PBP; details: for AD-NL ratio R = (average PBP of AD group)/(average PBP of NL group), SUVP / AD-NL ratio R = (average PBP of AD group)/(average PBP of NL group), SUVR: Table 5, region not stated; for AD-NL ratio (R), SUVP PBP / AD-NL ratio (R), SUVR PBP: temporal lobe
Description: In another embodiment, the average PBP of a particular diseased (or abnormal) group (e.g., an AD group) for a particular ROI may be compared to the PBP of a group of normal control (NL) subjects. For example, a ratio (R) of PBP may be obtained by: R=(average PBP of diseased or abnormal group)/(average PBP of NL group)
Standardized uptake value (SUV) images were obtained by normalizing tissue radioactivity concentration by injected dose and bodyweight. Estimates of tau deposition were determined for THK53151 with the 40-60 min SUV and for AV1451 with for the 80-100 min SUV. Standard SUVR was generated by using cerebellar cortex as reference. To control the variation of SUVR measures in THK5351 and AV1451 PET caused by the off-target binding in reference region, each subject's SUV images were first transferred into standardized SUVP images, using the Peak-alignment method (as described above). In order to compare the regional SUV distribution patterns on group level, the whole brain probability density function (PDFwb) of SUVP were computed for each subject by normalizing the histograms of a subject's SUVP with the total number of intracranial voxels of that subject. Finally, the group average whole brain probability density function (PDFwb) were computed by averaging the individual subjects' PDFwb within 4 compare groups (2 tracers×2 conditions). One important advantage of SUVP over SUVR is that the Peak-alignment method standardized the range of whole brain SUV (marked in FIG. 2) into [−3,3] approximately, regardless of tracer or disease condition, thus allowing universal cutoff for different tracers, while SUVR cutoffs are tracer-dependent (e.g. 1.5 for THK and 1.19 for AV1451). Here, 1.5 is used for SUVP cutoff, representing 1.5 times std from whole brain mode. The positive binding percentage: PBP=(number of positive bring voxels)/(total number of voxels), are computed for both SUVP and SUVR in different brain tissues.
To compare the classification accuracy of AD and NL using mean SUVR and PBP (SUVR and SUVP), the ROC curve was computed and the area under curve (AUC) was computed.
We also computed the diagnostic accuracy in terms of AUC, as specified in Method section. […] The AD-NL ratio obtained using (average PBP of AD group)/(average PBP of NL group).

tau [3] = assay: as above; details: temporal lobe

| Structure (SMILES) | PBP of SUVP, Basal ganglia (tau [1]; AD patients) | PBP of SUVP, Cerebellar GM (tau [1]; AD patients) | PBP of SUVP, Cerebral GM (tau [1]; AD patients) | PBP of SUVP, Cerebral WM (tau [1]; AD patients) | PBP of SUVP, Frontal cortex (tau [1]; AD patients) | PBP of SUVP, Occipital cortex (tau [1]; AD patients) | PBP of SUVP, Partial cortex (tau [1]; AD patients) | PBP of SUVP, Temporal cortex (tau [1]; AD patients) | mean SUVP in cerebellum GM (tau [1]; AD patients) | PBP of SUVP, Basal ganglia (tau [1]; NL subjects) | PBP of SUVP, Cerebellar GM (tau [1]; NL subjects) | PBP of SUVP, Cerebral GM (tau [1]; NL subjects) | PBP of SUVP, Cerebral WM (tau [1]; NL subjects) | PBP of SUVP, Frontal cortex (tau [1]; NL subjects) | PBP of SUVP, Occipital cortex (tau [1]; NL subjects) | PBP of SUVP, Partial cortex (tau [1]; NL subjects) | PBP of SUVP, Temporal cortex (tau [1]; NL subjects) | mean SUVP in cerebellum GM (tau [1]; NL subjects) | AD-NL ratio R = (average PBP of AD group)/(average PBP of NL group), SUVP (tau [2]) | AD-NL ratio R = (average PBP of AD group)/(average PBP of NL group), SUVR (tau [2]) | other results |
| --- | --- | --- | --- | --- | --- | --- | --- | --- | --- | --- | --- | --- | --- | --- | --- | --- | --- | --- | --- | --- | --- |
| CNc1ccc(-c2ccc3cc(OC[C@H](O)CF)ccc3n2)cn1 [THK5351] | 61.93(7.25) | .07(.10) | 5.56(1.47) | 8.70(3.24) | 1.25(0.86)^ | 1.73(2.79)^ | 2.16(3.33)^+ | 17.94(5.15)*^+ | −1.24(0.24) | 81.24(8.55)^++ | .10(.14) | 3.81(2.19) | 7.06(1.55) | 2.37(1.25)^+ | 0.05(0.09) | 0.17(0.21) | 6.93(4.78) | −1.21(0.28) | 3.1248 | 1.2747 | decrease of cerebellum GM SUVP in AD comparing to NL (tau [1]; AD vs NL): 2.5%; AD-NL ratio (R), SUVP PBP (tau [2]): 2.39; AD-NL ratio (R), SUVR PBP (tau [2]): 1.25; AD-NL ratio (R), SUVR Mean (tau [3]): 1.18 |
| [18F]c1ccc(-c2ccc3c(c2)[nH]c2ccncc23)cn1 [AV-1451] | 18.55(12.28)^ | .90(1.46) | 9.4(10.83)^+ | 7.86(7.44)^+ | 5.32(7.70)^ | 5.59(8.23)^+ | 10.2(15.2)^+ | 20.72(20.48)*^+ | −0.73(0.43) | 28.14(11.42) | .83(1.45) | 1.85(3.24) | 2.65(3.64) | 0.78(1.43) | 0.54(1.58) | 0.95(3.21) | 5.44(11.10) | −1.00(0.45) | 4.4004 | 1.3258 | increase of cerebellar GM SUVP in AD comparing to NL (tau [1]; AD vs NL): 37%; AD-NL ratio (R), SUVP PBP (tau [2]): 3.69; AD-NL ratio (R), SUVR PBP (tau [2]): 1.3; AD-NL ratio (R), SUVR Mean (tau [3]): 1.17 |
